Measurements from US20060178374A1, “Aminoheteroaryl compounds as protein kinase inhibitors” (AGOURON PHARMACEUTICALS, INC., priority 2004, published 2006).
pKi: −log10 of the molar value.

Biological target: HGFR (c-Met) (Homo sapiens, UniProt P08581)
Test: HGFR Continuous-Coupled Spectrophotometric Assay
Format: biochemical
Conditions: HGFR enzyme 50 nM, Met-2 peptide substrate, 37° C.
Protocol: The general procedure is as follows: compounds and kinase assay reagents are introduced into test wells. The assay is initiated by addition of the kinase enzyme. Enzyme inhibitors reduce the measured activity of the enzyme.
In the continuous-coupled spectrophotometric assay the time-dependent production of ADP by the kinase is determined by analysis of the rate of consumption of NADH by measurement of the decrease in absorbance at 340 nm. As the PK produces ADP it is re-converted to ATP by reaction with phosphoenol pyruvate and pyruvate kinase. Pyruvate is also produced in this reaction. Pyruvate is subsequently converted to lactate by reaction with lactate dehydrogenase, which simultaneously converts NADH to NAD.
HGFR Continuous-Coupled Spectrophotometric Assay
This assay analyzes the tyrosine kinase activity of HGFR on the Met-2 substrate peptide, a peptide derived from the activation loop of the HGFR.
• 1. […] Dissolve up in 200 mM HEPES, pH 7.5 at 10 mM stock. • 3. 1 M PEP (phospho-enol-pyruvate) in 200 mM HEPES, pH 7.5 • 4. 100 mM NADH (B-Nicotinamide Adenine Dinucleotide, Reduced Form) in 200 mM HEPES, pH 7.5 • 5. 4 M MgCl2 (Magnesium Chloride) in ddH2O 6. 1 M DTT (Dithiothreitol) in 200 mM HEPES, pH 7.5 • 7. 15 Units/mL LDH (Lactic Dehydrogenase) • 8. 15 Units/mL PK (Pyruvate Kinase) • 9. 5M NaCl dissolved in ddH2O • 10. Tween-20 (Protein Grade) 10% Solution • 11. 1 M HEPES buffer: (N-[2-Hydroxethyl]piperazine-N-[2-ethanesulfonic acid]) Sodium Salt. Dissolve in ddH2O, adjust pH to 7.5, bring volume to 1 L. Filter at 0.1 μm. • 12. […] 100% DMSO (SIGMA) • 14. […] Beckman DU-650 w/ micro cell holders • 18. Beckman 4-position micro cell cuvette Procedure:
Prep Dilution Buffer (DB) for Enzyme (For 30 mL prep) • 1. DB final concentration is 2 mM DTT, 25 mM NaCl2, 5 mM MgCl2, 0.01% Tween-20, and 50 mM HEPES buffer, pH 7.5. • 2. Make up 50 mM HEPES by adding 1.5 mL 1 M HEPES into 28.1 mL of ddH2O. Add rest of the reagents. Into 50 mL conical vial, add 60 μL of 1M DTT, 150 μL 5M NaCl2, 150 μL 1M MgCl2, and 30 μL of 10% Tween-20 to give total volume of 30 mL. • 3. Vortex for 5-10 seconds. • 4. Aliquot out DB at 1 mL/tube and label tubes as “DB HGFR” • 5. Note: This can be prepared and stored ahead of time. • 6. Freeze un-used aliquots in microcentrifuge tubes at −20° C. freezer.
Prep Compounds • 1. For compound dilution plate, add 4 μL of 10 mM stock into column 1 of plate, and bring volume to 100 μL with 100% DMSO. • 2. Set up the Precision 2000 dilution method. A final concentration of 200 μM compound in 50% DMSO, 100 mM HEPES (1:2 serial dilution).
Prep Coupled Enzymatic Buffer:
1. Final concentration in assay:
• 2. For a 10 mL reaction buffer add 10 μL of 1M PEP, 33 μL of 100 mM NADH, 50 μL of 4M MgCl2, 20 μL of 1M DTT, 6 μL of 500 mM ATP, and […] of 10 mM Met-2 peptide into 100 mM HEPES buffer pH 7.5 and vortex/mix. • 3. Add coupling enzymes, LDH and PK, into reaction mix. Mix by gentle inversion.
1. Spectrophotometer settings:
• 2. Add 85 μL of CE reaction mix into each well of assay plate. • 3. Add 5 μL of diluted compound into a well of the assay plate. • 4. Add 5 μL of 50% DMSO for negative control into last column of assay plate. • 5. Mix with multi-channel pipettor or orbital shaker. • 6. Pre-incubate for 10 minutes at 37° C. • 7. Add 10 μL of 500 nM HGFR to each well of assay plate; the final HGFR concentration is 50 nM in a total final volume of 100 μL. • 8. Measure activity for 10 minutes at λ=340 nm and 37° C.
Ki data were obtained using the HGFR Continuous-Coupled Spectrophotometric Assay, and IC50 data were obtained using the Cellular HGFR Autophosphorylation Assay, both of which are described above.

Sequence of HGFR (c-Met) (P08581 974-1390): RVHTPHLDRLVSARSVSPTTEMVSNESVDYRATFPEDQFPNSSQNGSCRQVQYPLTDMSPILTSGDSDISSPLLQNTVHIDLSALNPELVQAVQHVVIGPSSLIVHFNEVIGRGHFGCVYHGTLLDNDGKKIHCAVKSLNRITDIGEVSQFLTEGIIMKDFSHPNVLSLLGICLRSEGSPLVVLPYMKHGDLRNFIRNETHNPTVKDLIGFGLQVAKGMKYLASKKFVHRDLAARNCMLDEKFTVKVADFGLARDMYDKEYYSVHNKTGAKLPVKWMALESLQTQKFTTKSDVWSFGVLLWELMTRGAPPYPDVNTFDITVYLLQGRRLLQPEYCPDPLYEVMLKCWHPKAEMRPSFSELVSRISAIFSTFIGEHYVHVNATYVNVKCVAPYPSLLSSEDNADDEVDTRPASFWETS

| SMILES | pKi |
| --- | --- |
| COc1cc(-c2cnc(N)c(OC(C)c3c(Cl)ccc(F)c3Cl)c2)ccc1CN1C[C@@H](C)N[C@@H](C)C1 (stereo partly drawn) [Example 27, 3-[1-(2,6-dichloro-3-fluorophenyl)ethoxy]-5-(4-{[(3R,5S)-3,5-dimethylpiperazin-1-yl]methyl}-3-methoxyphenyl)pyridin-2-amine] | 7.67 |
| COc1cc(-c2cnc(N)c(OC(C)c3c(Cl)ccc(F)c3Cl)c2)ccc1C(=O)N1CCNCC1 (stereo not drawn) [Example 28, 3-[1-(2,6-dichloro-3-fluorophenyl)ethoxy]-5-[3-methoxy-4-(piperazin-1-ylcarbonyl)phenyl]pyridin-2-amine] | 7.58 |
| COc1cc(-c2cnc(N)c(OC(C)c3c(Cl)ccc(F)c3Cl)c2)ccc1CN1CCNCC1 (stereo not drawn) [Example 29, 3-[1-(2,6-dichloro-3-fluorophenyl)ethoxy]-5-[3-methoxy-4-(piperazin-1-ylmethyl)phenyl]pyridin-2-amine] | 7.91 |
| CC(Oc1cc(-c2ccc(C3(O)CCNCC3)nc2)cnc1N)c1c(Cl)ccc(F)c1Cl (stereo not drawn) [Example 30] | 7.66 |
| COc1cc(-c2cnc(N)c(OC(C)c3c(Cl)ccc(F)c3Cl)c2)ccc1COC(=O)N(C)C (stereo not drawn) [Example 31, 4-{6-amino-5-[1-(2,6-dichloro-3-fluorophenyl)ethoxy]pyridin-3-yl}-2-methoxybenzyl dimethylcarbamate] | 6.83 |
| CC(Oc1cc(-c2ccc(OCC(=O)N3CCNCC3)cc2)cnc1N)c1c(Cl)ccc(F)c1Cl (stereo not drawn) [Example 33, 2-(4-{6-Amino-5-[1-(2,6-dichloro-3-fluoro-phenyl)-ethoxy]-pyridin-3-yl}-phenoxy)-1-piperazin-1-yl-ethanone] | 4.83 |
| CC(Oc1cc(-c2ccc(OC3CCNCC3)cc2)cnc1N)c1c(Cl)ccc(F)c1Cl (stereo not drawn) [Example 34, 3-[1-(2,6-Dichloro-3-fluoro-phenyl)-ethoxy]-5-[4-(piperidin-4-yloxy)-phenyl]-pyridin-2-ylamine] | 7.40 |
| C[C@@H]1CN(C(=O)c2ccc(-c3cnc(N)c(OC4CCCCc5ccc(F)cc54)c3)cc2)C[C@H](C)N1 (stereo partly drawn) [Example 36, {4-[6-Amino-5-(3-fluoro-6,7,8,9-tetrahydro-5H-benzocyclohepten-5-yloxy)-pyridin-3-yl]-phenyl}-((3R,5S)-3,5-dimethyl-piperazin-1-yl)-methanone] | 5.20 |
| Nc1ncc(-c2ccc(OCCN3CCCC3)cc2)cc1OC1CCCCc2ccc(F)cc21 (stereo not drawn) [Example 37, 3-(3-Fluoro-6,7,8,9-tetrahydro-5H-benzocyclohepten-5-yloxy)-5-[4-(2-pyrrolidin-1-yl-ethoxy)-phenyl]-pyridin-2-ylamine] | 5.08 |
| CS(=O)(=O)Nc1ccc(-c2cnc(N)c(OC3CCCCc4ccc(F)cc43)c2)cc1 (stereo not drawn) [Example 38, N-{4-[6-Amino-5-(3-fluoro-6,7,8,9-tetrahydro-5H-benzocyclohepten-5-yloxy)-pyridin-3-yl]-phenyl}-methanesulfonamide] | 5.15 |
| CC(Oc1cc(-c2ccc(NC(=O)N3CCC(NC4CC4)CC3)cc2)cnc1N)c1c(Cl)ccc(F)c1Cl (stereo not drawn) [Example 39, 4-Cyclopropylamino-piperidine-1-carboxylic acid (4-{6-amino-5-[1-(2,6-dichloro-3-fluoro-phenyl)-ethoxy]-pyridin-3-yl}-phenyl)-amide] | 7.02 |
| CC(Oc1cc(-c2ccc(NC(=O)N3CCNCC3)cc2)cnc1N)c1c(Cl)ccc(F)c1Cl (stereo not drawn) [Example 40, Piperazine-1-carboxylic acid (4-{6-amino-5-[1-(2,6-dichloro-3-fluoro-phenyl)-ethoxy]-pyridin-3-yl}-phenyl)-amide] | 7.06 |
| CCOC(=O)c1[nH]c(C)c(-c2cnc(N)c(OC(C)c3c(Cl)ccc(F)c3Cl)c2)c1C (stereo not drawn) [Example 41, 4-{6-Amino-5-[1-(2,6-dichloro-3-fluoro-phenyl)-ethoxy]-pyridin-3-yl}-3,5-dimethyl-1H-pyrrole-2-carboxylic acid ethyl ester] | 5.68 |
| Cc1[nH]c(C(=O)O)c(C)c1-c1cnc(N)c(OC(C)c2c(Cl)ccc(F)c2Cl)c1 (stereo not drawn) [Example 42, 4-{6-Amino-5-[1-(2,6-dichloro-3-fluoro-phenyl)-ethoxy]-pyridin-3-yl}-3,5-dimethyl-1H-pyrrole-2-carboxylic acid] | 5.90 |
| Cc1[nH]c(C(=O)NCCCN(C)C)c(C)c1-c1cnc(N)c(OC(C)c2c(Cl)ccc(F)c2Cl)c1 (stereo not drawn) [Example 43, 4-{6-Amino-5-[1-(2,6-dichloro-3-fluoro-phenyl)-ethoxy]-pyridin-3-yl}-3,5-dimethyl-1H-pyrrole-2-carboxylic acid (3-dimethylamino-propyl)-amide] | 6.35 |
| Cc1[nH]c(C(=O)NCCN(C)C)c(C)c1-c1cnc(N)c(OC(C)c2c(Cl)ccc(F)c2Cl)c1 (stereo not drawn) [Example 44, 4-{6-Amino-5-[1-(2,6-dichloro-3-fluoro-phenyl)-ethoxy]-pyridin-3-yl}-3,5-dimethyl-1H-pyrrole-2-carboxylic acid (2-dimethylamino-ethyl)-amide] | 6.58 |
| CC(Oc1cc(-c2cccc(NC(=O)N3CCNCC3)c2)cnc1N)c1c(Cl)ccc(F)c1Cl (stereo not drawn) [Example 45, Piperazine-1-carboxylic acid (3-{6-amino-5-[1-(2,6-dichloro-3-fluoro-phenyl)-ethoxy]-pyridin-3-yl}-phenyl)-amide] | 7.02 |
| C[C@@H](Oc1nc(-c2ccc(C(=O)O)cc2)cnc1N)c1c(Cl)ccc(F)c1Cl [Example 47, 4-{5-Amino-6-[(R)-1-(2,6-dichloro-3-fluoro-phenyl)-ethoxy]-pyrazin-2-yl}-benzoic acid] | 6.81 |
| C[C@@H](Oc1nc(-c2ccc(C(=O)N3CCNCC3)cc2)cnc1N)c1c(Cl)ccc(F)c1Cl [Example 48, (4-{5-Amino-6-[(R)-1-(2,6-dichloro-3-fluoro-phenyl)-ethoxy]-pyrazin-2-yl}-phenyl)-piperazin-1-yl-methanone] | 7.57 |
| C[C@@H](Oc1nc(-c2ccc(C(=O)N3CCN(C(=O)OC(C)(C)C)CC3)cc2)cnc1N)c1c(Cl)ccc(F)c1Cl [Example 49, 4-(4-{5-Amino-6-[(R)-1-(2,6-dichloro-3-fluoro-phenyl)-ethoxy]-pyrazin-2-yl}-benzoyl)-piperazine-1-carboxylic acid tert-butyl ester] | 6.47 |
| CC(Oc1cc(Br)cnc1N)c1c(C#N)ccc(N(C)C)c1Cl (stereo not drawn) [Example 50, 2-{1-[(2-amino-5-bromopyridin-3-yl)oxy]ethyl}-3-chloro-4-(dimethylamino)benzonitrile] | 5.74 |
| CC(Oc1cc(Br)cnc1N)c1c(C#N)ccc(F)c1Cl (stereo not drawn) [Example 51, 2-[1-(2-Amino-5-bromo-pyridin-3-yloxy)-ethyl]-3-chloro-4-fluoro-benzonitrile] | 5.68 |
| CC(Oc1cc(-c2ccc(C(=O)N3CCC(N4CCCC4)CC3)cc2)cnc1N)c1ccc(Cl)cc1Cl (stereo not drawn) [Example 52, (4-{6-Amino-5-[1-(2,4-dichloro-phenyl)-ethoxy]-pyridin-3-yl}-phenyl)-(4-pyrrolidin-1-yl-piperidin-1-yl)-methanone] | 5.67 |

Same assay, conditions: compound at 1 μM

| SMILES | inhibition at 1 µM |
| --- | --- |
| Nc1ncc(Br)cc1OC1CCCCc2ccc(F)cc21 (stereo not drawn) [Example 35, 5-Bromo-3-(3-fluoro-6,7,8,9-tetrahydro-5H-benzocyclohepten-5-yloxy)-pyridin-2-ylamine] | 9% |
